# Values of other authors as cited in article PMC8954540, “A New Class of PSMA-617-Based Hybrid Molecules for Preoperative Imaging and Intraoperative Fluorescence Navigation of Prostate Cancer” (Pharmaceuticals, 2022).
# Test system: human serum albumin
# Parameters: method as in PMID 942422, PMID 11325049
# Conditions: cited from earlier work
structure (smiles),measurement,value
CC1(C)C(/C=C/C=C/C=C/C=C2\N(CCCCS(=O)(=O)O)c3ccc4ccccc4c3C2(C)C)=[N+](CCCCS(=O)(=O)[O-])c2ccc3ccccc3c21 [indocyanine green],human serum albumin binding,prone to human serum albumin binding
